Read-outs that look alike come from different tables or passages of the source.
How the values were obtained:
[1] = system: Key Broadleaf Weed and Crop Species; assay: Post-emergent Test II herbicidal activity (Table 15); assay type: in vivo; conditions: post-emergence, 336 h, 14 d; for pest or weed control at 35 g/ha: 35 g ai/ha; for pest or weed control at 70 g/ha: 70 g ai/ha; for pest or weed control at 140 g/ha: 140 g ai/ha
Outline: (§1)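 Visual injury rating (0 = none, 100 = complete kill) taken 14 d after treatment, relative to untreated plants. Compounds in acetone/DMSO with crop oil concentrate and Triton X-155 were track-sprayed at 187 L/ha onto seedlings at the first-second true leaf stage.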

[2] = system: Key Grass and Sedge Weeds as well as Grass Crops; assay: Post-emergent Test II herbicidal activity (Table 16); assay type: in vivo; conditions: post-emergence, 336 h, 14 days after application; for pest or weed control at 35 g/ha: 35 g ai/ha; for pest or weed control at 70 g/ha: 70 g ai/ha; for pest or weed control at 140 g/ha: 140 g ai/ha
Outline: as §1

[3] = Abutilon theophrasti, velvetleaf (Abutilon theophrasti), read-out: Visual Growth Reduction (%) 14 Days After Application, ABUTH
[4] = Amaranthus retroflexus, redroot pigweed (Amaranthus retroflexus), read-out: Visual Growth Reduction (%) 14 Days After Application, AMARE
[5] = Brassica napus, oilseed rape, canola (Brassica napus), read-out: Visual Growth Reduction (%) 14 Days After Application, BRSNN
[6] = Chenopodium album, lambsquarters (Chenopodium album), read-out: Visual Growth Reduction (%) 14 Days After Application, CHEAL
[7] = Euphorbia heterophylla, wild poinsettia (Euphorbia heterophylla), read-out: Visual Growth Reduction (%) 14 Days After Application, EPHHL
[8] = Helianthus annuus, sunflower (Helianthus annuus), read-out: Visual Growth Reduction (%) 14 Days After Application, HELAN
[9] = Cyperus esculentus, yellow nutsedge (Cyperus esculentus), read-out: Visual Growth Reduction (%) 14 Days After Application CYPES
[10] = Echinochloa crus-galli, barnyardgrass (Echinochloa crus-galli), read-out: Visual Growth Reduction (%) 14 Days After Application ECHCG
[11] = Oryza sativa, rice (Oryza sativa), read-out: Visual Growth Reduction (%) 14 Days After Application ORYSA
[12] = Triticum aestivum, wheat, spring (Triticum aestivum), read-out: Visual Growth Reduction (%) 14 Days After Application TRZAS
[13] = Zea mays, maize, corn (Zea mays), read-out: Visual Growth Reduction (%) 14 Days After Application ZEAMX
[14] = Setaria faberi, giant foxtail (Setaria faberi), read-out: Visual Growth Reduction (%) 14 Days After Application SETFA

COC(=O)c1nc(-c2ccc3ncn(C)c3c2)c(F)c(N)c1Cl [Compound 7.02]
95 to 100%: pest or weed control at 140 g/ha [1, 6]
0 to 29%: pest or weed control at 35 g/ha [1, 3] | pest or weed control at 70 g/ha [1, 3] | pest or weed control at 140 g/ha [1, 3] | pest or weed control at 35 g/ha [1, 4] | pest or weed control at 70 g/ha [1, 4] | pest or weed control at 140 g/ha [1, 4] | pest or weed control at 35 g/ha [1, 5] | pest or weed control at 70 g/ha [1, 5] | pest or weed control at 140 g/ha [1, 5] | pest or weed control at 35 g/ha [1, 6] | pest or weed control at 35 g/ha [1, 7] | pest or weed control at 70 g/ha [1, 7] | pest or weed control at 140 g/ha [1, 7] | pest or weed control at 35 g/ha [1, 8] | pest or weed control at 70 g/ha [1, 8] | pest or weed control at 140 g/ha [1, 8] | pest or weed control at 35 g/ha [2, 9] | pest or weed control at 70 g/ha [2, 9] | pest or weed control at 140 g/ha [2, 9] | pest or weed control at 35 g/ha [2, 10] | pest or weed control at 70 g/ha [2, 10] | pest or weed control at 140 g/ha [2, 10] | pest or weed control at 35 g/ha [2, 11] | pest or weed control at 70 g/ha [2, 11] | pest or weed control at 140 g/ha [2, 11] | pest or weed control at 35 g/ha [2, 12] | pest or weed control at 70 g/ha [2, 12] | pest or weed control at 140 g/ha [2, 12] | pest or weed control at 35 g/ha [2, 13] | pest or weed control at 70 g/ha [2, 13] | pest or weed control at 140 g/ha [2, 13]
75 to 84%: pest or weed control at 70 g/ha [1, 6]
218 to 220 °C: melting point

COC(=O)c1nc(-c2ccc3ccsc3c2)c(F)c(N)c1Cl [Compound 3.12]
30 to 44%: pest or weed control at 140 g/ha [1, 5]
0 to 29%: pest or weed control at 35 g/ha [1, 5] | pest or weed control at 70 g/ha [1, 5] | pest or weed control at 35 g/ha [2, 9] | pest or weed control at 70 g/ha [2, 9] | pest or weed control at 140 g/ha [2, 9] | pest or weed control at 35 g/ha [2, 11] | pest or weed control at 70 g/ha [2, 11] | pest or weed control at 140 g/ha [2, 11] | pest or weed control at 35 g/ha [2, 14] | pest or weed control at 70 g/ha [2, 14] | pest or weed control at 140 g/ha [2, 14] | pest or weed control at 35 g/ha [2, 12] | pest or weed control at 70 g/ha [2, 12] | pest or weed control at 140 g/ha [2, 12]
95 to 100%: pest or weed control at 70 g/ha [1, 3] | pest or weed control at 140 g/ha [1, 3] | pest or weed control at 35 g/ha [1, 6] | pest or weed control at 70 g/ha [1, 6] | pest or weed control at 140 g/ha [1, 6] | pest or weed control at 35 g/ha [2, 13] | pest or weed control at 70 g/ha [2, 13] | pest or weed control at 140 g/ha [2, 13]
185 to 189 °C: melting point
60 to 74%: pest or weed control at 35 g/ha [1, 3] | pest or weed control at 35 g/ha [1, 4] | pest or weed control at 70 g/ha [1, 4] | pest or weed control at 35 g/ha [1, 7] | pest or weed control at 70 g/ha [1, 7]
85 to 94%: pest or weed control at 140 g/ha [1, 4] | pest or weed control at 140 g/ha [1, 7] | pest or weed control at 35 g/ha [1, 8] | pest or weed control at 70 g/ha [1, 8] | pest or weed control at 140 g/ha [1, 8] | pest or weed control at 35 g/ha [2, 10] | pest or weed control at 70 g/ha [2, 10] | pest or weed control at 140 g/ha [2, 10]

Source: patent publication US20170050957A1, “4-AMINO-6-(HETEROCYCLIC)PICOLINATES AND 6-AMINO-2-(HETEROCYCLIC)PYRIMIDINE-4-CARBOXYLATES AND THEIR USE AS HERBICIDES” (Dow AgroSciences LLC, priority 2013, published 2017)
